Measured values from patent US20190380978A1, “SOLID ORAL DOSAGE FORMS OF 2R,6R-HYDROXYNORKETAMINE OR DERIVATIVES THEREOF” (priority 2016, published 2019).

What was measured:
[1] = biological target: T1, UGT1A1 (Homo sapiens, UniProt P22309); assay: UGT inhibition assay, UGT1A1; type: in vitro ADME
T1 sequence (P22309 26-533): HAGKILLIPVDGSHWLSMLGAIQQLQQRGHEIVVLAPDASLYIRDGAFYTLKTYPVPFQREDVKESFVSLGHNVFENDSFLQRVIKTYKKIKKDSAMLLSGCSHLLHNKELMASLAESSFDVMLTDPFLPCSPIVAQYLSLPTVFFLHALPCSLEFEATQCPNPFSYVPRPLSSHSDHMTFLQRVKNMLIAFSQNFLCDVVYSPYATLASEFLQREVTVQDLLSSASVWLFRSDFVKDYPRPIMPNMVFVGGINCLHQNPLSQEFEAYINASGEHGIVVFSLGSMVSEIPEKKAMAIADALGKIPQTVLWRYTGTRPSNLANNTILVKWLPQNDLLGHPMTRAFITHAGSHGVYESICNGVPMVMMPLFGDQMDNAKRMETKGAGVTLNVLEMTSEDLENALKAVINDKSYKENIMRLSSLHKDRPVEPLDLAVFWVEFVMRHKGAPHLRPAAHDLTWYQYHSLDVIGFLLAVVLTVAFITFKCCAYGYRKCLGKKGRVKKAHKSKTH
Source text: 2R,6R-hydroxynorketamine was therefore investigated for its potential to inhibit this isozyme, along with that of the major UGT isozyme, UGT1A1, using a UGT inhibition assay.

[2] = biological target: T2, 5-HT1A (Homo sapiens, UniProt P08908); assay: binding to 5-HT1A receptor
T2 sequence (P08908 1-422): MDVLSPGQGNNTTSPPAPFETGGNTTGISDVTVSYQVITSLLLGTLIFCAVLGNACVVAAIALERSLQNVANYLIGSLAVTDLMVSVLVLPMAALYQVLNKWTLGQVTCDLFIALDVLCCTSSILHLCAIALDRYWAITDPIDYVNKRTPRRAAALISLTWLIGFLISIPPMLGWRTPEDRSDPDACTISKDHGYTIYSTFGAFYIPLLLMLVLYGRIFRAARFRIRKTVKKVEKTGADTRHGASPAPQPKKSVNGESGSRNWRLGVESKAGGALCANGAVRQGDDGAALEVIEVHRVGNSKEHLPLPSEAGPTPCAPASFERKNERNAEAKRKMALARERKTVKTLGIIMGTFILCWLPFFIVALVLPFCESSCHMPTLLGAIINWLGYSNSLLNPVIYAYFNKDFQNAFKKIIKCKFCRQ
Source text: 2R,6R-hydroxynorketamine was investigated for binding to monoamine oxidases A and B, monoamine transporters, as well as a variety of 5HT receptors.

[3] = biological target: CYP2D6 (Homo sapiens, UniProt P10635); assay: CYP inhibition assay, CYP2D6; type: in vitro ADME
Chain of CYP2D6 (P10635 whole entry): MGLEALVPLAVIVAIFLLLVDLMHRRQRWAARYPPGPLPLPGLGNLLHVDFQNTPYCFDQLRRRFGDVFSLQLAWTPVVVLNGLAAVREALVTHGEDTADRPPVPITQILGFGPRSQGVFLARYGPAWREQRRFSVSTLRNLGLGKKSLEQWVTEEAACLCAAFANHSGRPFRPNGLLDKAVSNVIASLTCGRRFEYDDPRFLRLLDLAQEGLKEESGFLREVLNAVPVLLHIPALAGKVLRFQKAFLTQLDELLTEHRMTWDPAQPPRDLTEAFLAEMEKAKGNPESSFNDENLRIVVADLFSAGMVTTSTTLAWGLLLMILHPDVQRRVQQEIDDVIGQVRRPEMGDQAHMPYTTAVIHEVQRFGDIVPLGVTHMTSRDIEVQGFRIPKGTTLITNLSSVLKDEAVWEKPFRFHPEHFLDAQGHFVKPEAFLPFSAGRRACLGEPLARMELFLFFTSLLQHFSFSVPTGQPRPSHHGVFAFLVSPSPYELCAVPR
Source text: Cytochrome P450s (CYPs) are a family of enzymes that play a primary role in the metabolism of a wide variety of drugs. 2R,6R-hydroxynorketamine was investigated for its potential to inhibit the action of 7 key CYP enzymes using an inhibition assay measuring reduction in the formation of metabolites compared to control.

N[C@@]1(c2ccccc2Cl)CCC[C@@H](O)C1=O [2R,6R-hydroxynorketamine]
inhibition of UGT1A1 [1]: does not inhibit
% Inhibition of Control Specific Binding [2]: 5%
% of Control Specific Binding [2]: 97.9%
binding to 5HT1A receptor subtype [2]: does not bind
inhibition at 0.4 µM ([3]; 0.4 μM): 3.16%
inhibition at 1 µM ([3]; 1 μM): 6.65%
inhibition at 4 µM ([3]; 4 μM): 11.5%
inhibition at 10 µM ([3]; 10 μM): 9.41%
inhibition at 40 µM ([3]; 40 μM): 11.2%
inhibition at 100 µM ([3]; 100 μM): 5.73%
